In ChEMBL document CHEMBL3259601, “Synthesis of novel 1,2,3-triazole substituted-N-alkyl/aryl nitrone derivatives, their anti-inflammatory and anticancer activity” (Eur J Med Chem, 2014):

Columns and labels:
[1] = test system: COLO 205; assay: Cytotoxicity against human COLO205 cells assessed as growth inhibition after 24 hrs by MTT assay; type: functional, cell-based; settings: COLO 205, 24 h
[2] = test system: MDA-MB-231; assay: Cytotoxicity against human MDA-MB-231 cells assessed as growth inhibition after 24 hrs by MTT assay; type: functional, cell-based; settings: MDA-MB-231, 24 h
[3] = test system: THP-1; assay: Cytotoxicity against human THP1 cells assessed as effect on cell viability at 20 uM after 48 hrs by trypan blue exclusion assay; type: cell-based; settings: thp-1, 48 h
[4] = test system: A549; assay: Cytotoxicity against human A549 cells assessed as growth inhibition after 24 hrs by MTT assay; type: functional, cell-based; settings: A549, 24 h
[5] = Antiinflammatory activity in human THP1 cells assessed as inhibition of PMA-induced IL-1beta secretion preincubated for 2 hrs followed by PMA challenge measured after 48 hrs by ELISA; type: functional, cell-based; settings: THP-1
[6] = test system: PC-3; assay: Cytotoxicity against human PC3 cells assessed as growth inhibition after 24 hrs by MTT assay; type: functional, cell-based; settings: PC-3, 24 h
[7] = test system: PC-3; assay: Induction of apoptosis in human PC3 cells assessed as activation of caspase-3 using AFC conjugated Ac-DEVD as substrate measured per mg of protein at 10 uM after 12 hrs by fluorescence assay (reference value: 1055.6 +/- 108.2 FU/min); type: functional
[8] = test system: PC-3; assay: Induction of apoptosis in human PC3 cells assessed as activation of caspase-3 using AFC conjugated Ac-DEVD as substrate measured per mg of protein at 8 uM after 48 hrs by fluorescence assay (reference value: 2642.4 +/- 37.5 FU/min); type: functional
[9] = test system: PC-3; assay: Induction of apoptosis in human PC3 cells assessed as activation of caspase-3 using AFC conjugated Ac-DEVD as substrate measured per mg of protein at 8 uM after 36 hrs by fluorescence assay (reference value: 2192.3 +/- 115.9 FU/min); type: functional
[10] = test system: PC-3; assay: Induction of apoptosis in human PC3 cells assessed as activation of caspase-3 using AFC conjugated Ac-DEVD as substrate measured per mg of protein at 10 uM after 24 hrs by fluorescence assay (reference value: 2115.3 +/- 83.2 FU/min); type: functional
[11] = test system: PC-3; assay: Induction of apoptosis in human PC3 cells assessed as activation of caspase-3 using AFC conjugated Ac-DEVD as substrate measured per mg of protein at 8 uM after 12 hrs by fluorescence assay (reference value: 1055.6 +/- 108.2 FU/min); type: functional
[12] = test system: PC-3; assay: Induction of apoptosis in human PC3 cells assessed as activation of caspase-3 using AFC conjugated Ac-DEVD as substrate measured per mg of protein at 8 uM after 24 hrs by fluorescence assay (reference value: 2115.3 +/- 83.2 FU/min); type: functional
[13] = test system: PC-3; assay: Induction of apoptosis in human PC3 cells assessed as activation of caspase-3 using AFC conjugated Ac-DEVD as substrate measured per mg of protein at 10 uM after 48 hrs by fluorescence assay (reference value: 2642.4 +/- 37.5 FU/min); type: functional
[14] = test system: PC-3; assay: Induction of apoptosis in human PC3 cells assessed as activation of caspase-3 using AFC conjugated Ac-DEVD as substrate measured per mg of protein at 10 uM after 36 hrs by fluorescence assay (reference value: 2192.3 +/- 115.9 FU/min); type: functional
[15] = test system: PC-3; assay: Induction of apoptosis in human PC3 cells assessed as activation of caspase-3 using AFC conjugated Ac-DEVD as substrate measured per mg of protein measured per mg of protein at 2 uM after 24 hrs by fluorescence assay (reference value: 2115.3 +/- 83.2 FU/min); type: functional
[16] = test system: PC-3; assay: Induction of apoptosis in human PC3 cells assessed as activation of caspase-3 using AFC conjugated Ac-DEVD as substrate measured per mg of protein at 1 uM after 12 hrs by fluorescence assay (reference value: 1055.6 +/- 108.2 FU/min); type: functional
[17] = test system: PC-3; assay: Induction of apoptosis in human PC3 cells assessed as activation of caspase-3 using AFC conjugated Ac-DEVD as substrate measured per mg of protein at 2 uM after 12 hrs by fluorescence assay (reference value: 1055.6 +/- 108.2 FU/min); type: functional
[18] = test system: PC-3; assay: Induction of apoptosis in human PC3 cells assessed as activation of caspase-3 using AFC conjugated Ac-DEVD as substrate measured per mg of protein at 2 uM after 48 hrs by fluorescence assay (reference value: 2642.4 +/- 37.5 FU/min); type: functional
[19] = test system: PC-3; assay: Induction of apoptosis in human PC3 cells assessed as activation of caspase-3 using AFC conjugated Ac-DEVD as substrate measured per mg of protein at 2 uM after 36 hrs by fluorescence assay (reference value: 2192.3 +/- 115.9 FU/min); type: functional
[20] = test system: PC-3; assay: Induction of apoptosis in human PC3 cells assessed as activation of caspase-3 using AFC conjugated Ac-DEVD as substrate measured per mg of protein at 1 uM after 24 hrs by fluorescence assay (reference value: 2115.3 +/- 83.2 FU/min); type: functional
[21] = test system: PC-3; assay: Induction of apoptosis in human PC3 cells assessed as activation of caspase-3 using AFC conjugated Ac-DEVD as substrate measured per mg of protein at 1 uM after 48 hrs by fluorescence assay (reference value: 2642.4 +/- 37.5 FU/min); type: functional
[22] = test system: PC-3; assay: Induction of apoptosis in human PC3 cells assessed as activation of caspase-3 using AFC conjugated Ac-DEVD as substrate measured per mg of protein at 1 uM after 36 hrs by fluorescence assay (reference value: 2192.3 +/- 115.9 FU/min); type: functional

SMILES	IC50 [5] [µM]	IC50 [1] [µM]	IC50 [2] [µM]	Activity [3]	IC50 [4] [µM]	IC50 [6] [µM]	further results
[O-]/[N+](=C\c1cn(-c2ccccc2)nn1)c1ccccc1	8.8	> 100	> 100	Non-toxic	> 100	> 100	–
[O-]/[N+](=C\c1cn(-c2ccc(Cl)cc2)nn1)c1ccccc1	> 20	9.7	8.9	Non-toxic	10.5	11.1	–
CCCCCCCCCCn1cc(/C=[N+](\[O-])c2ccccc2)nn1	9.9	> 100	> 100	Non-toxic	> 100	> 100	–
COc1ccc(-n2cc(/C=[N+](\[O-])Cc3ccccc3)nn2)cc1	17.3	> 100	> 100	Non-toxic	> 100	> 100	–
[O-]/[N+](=C\c1cn(-c2ccc(C(F)(F)F)cc2)nn1)Cc1ccccc1	15.4	> 100	> 100	Non-toxic	> 100	> 100	–
[O-]/[N+](=C\c1cn(CCC(F)(F)C(F)(F)C(F)(F)C(F)(F)C(F)(F)C(F)(F)F)nn1)Cc1ccccc1	12.1	> 100	> 100	Non-toxic	> 100	> 100	–
CC(C)(C)/[N+]([O-])=C/c1cn(-c2ccccc2)nn1	> 20	15.2	14.8	Non-toxic	17.4	15.4	–
CC(C)(C)/[N+]([O-])=C/c1cn(-c2ccc(F)cc2)nn1	14	58.9	66.4	Non-toxic	87	72.1	–
CC(C)(C)/[N+]([O-])=C/c1cn(-c2ccc(C(F)(F)F)cc2)nn1	14.4	44.7	48.2	Non-toxic	43.6	42	–
COc1cccc2c1C(=O)c1c(O)c3c(c(O)c1C2=O)C[C@@](O)(C(=O)CO)C[C@@H]3O[C@H]1C[C@H](N)[C@H](O)[C@H](C)O1 [DOXORUBICIN]	–	–	–	–	–	0.6	Activity [15]: 4007.5 FU/min; Activity [16]: 3033.7 FU/min; Activity [17]: 3331.1 FU/min; Activity [18]: 7240.4 FU/min; Activity [19]: 4994.1 FU/min; Activity [20]: 3791.8 FU/min; Activity [21]: 6690.3 FU/min; Activity [22]: 4794.2 FU/min

Continued, in another order:

IC50 [5] [µM]	SMILES	IC50 [1] [µM]	IC50 [2] [µM]	Activity [3]	IC50 [4] [µM]	IC50 [6] [µM]	further results
> 20	[O-]/[N+](=C\c1cn(-c2ccc(F)cc2)nn1)c1ccccc1	10.2	9.8	Non-toxic	12.5	11.4	–
11.7	[O-]/[N+](=C\c1cn(CCC(F)(F)C(F)(F)C(F)(F)C(F)(F)C(F)(F)C(F)(F)C(F)(F)C(F)(F)F)nn1)c1ccccc1	> 100	> 100	Non-toxic	86.8	–	–
8	[O-]/[N+](=C\c1cn(-c2ccccc2)nn1)Cc1ccccc1	> 100	> 100	Non-toxic	> 100	–	–
9.7	[O-]/[N+](=C\c1cn(-c2ccc(F)cc2)nn1)Cc1ccccc1	> 100	> 100	Non-toxic	> 100	> 100	–
13.1	CCCCCCCCn1cc(/C=[N+](\[O-])Cc2ccccc2)nn1	> 100	> 100	Non-toxic	> 100	> 100	–
15.6	CCCCCCCCCCn1cc(/C=[N+](\[O-])Cc2ccccc2)nn1	> 100	> 100	Non-toxic	> 100	> 100	–
17	[O-]/[N+](=C\c1cn(CCC(F)(F)C(F)(F)C(F)(F)C(F)(F)C(F)(F)C(F)(F)C(F)(F)C(F)(F)F)nn1)Cc1ccccc1	9.4	8.4	Non-toxic	8.8	8.1	Activity [7]: 2541.4 FU/min; Activity [8]: 4280.8 FU/min; Activity [9]: 3396.8 FU/min; Activity [10]: 3802.2 FU/min; Activity [11]: 2473.2 FU/min; Activity [12]: 3148.5 FU/min; Activity [13]: 4700.5 FU/min; Activity [14]: 4082.5 FU/min
13.5	COc1ccc(-n2cc(/C=[N+](\[O-])C(C)(C)C)nn2)cc1	19.8	23.1	Non-toxic	23.7	23.8	–
7.9	CCCCCCCCn1cc(/C=[N+](\[O-])C(C)(C)C)nn1	30.8	29.7	Non-toxic	31.3	24.6	–
20	CCCCCCCCCCn1cc(/C=[N+](\[O-])C(C)(C)C)nn1	22.1	20.8	Non-toxic	24.8	19.8	–
8.1	CC(C)(C)/[N+]([O-])=C/c1cn(CCC(F)(F)C(F)(F)C(F)(F)C(F)(F)C(F)(F)C(F)(F)F)nn1	9.5	9.8	Non-toxic	11.5	11.2	–
15	CC(C)(C)/[N+]([O-])=C/c1cn(CCC(F)(F)C(F)(F)C(F)(F)C(F)(F)C(F)(F)C(F)(F)C(F)(F)C(F)(F)F)nn1	28.8	29.7	Non-toxic	30.5	25.7	–
18	CN1C(C(=O)Nc2ccccn2)=C(O)c2ccccc2S1(=O)=O [PIROXICAM]	–	–	–	–	–	–
